Test results from US20120107916A1, “METHODS AND COMPOSITIONS FOR AFFECTING THE DIFFERENTIATION OF CLOSTRIDIA IN CULTURE” (priority 2009, published 2012).

What was measured:
[1] = system: C. beijerinckii NCIMB 8052; test: Ceric ion reactive compounds (total alcohols) in culture broths, colorimetric ceric ammonium nitrate assay; format: cell-based, Clostridium beijerinckii; conditions: 50 nM peptide; for Optical density of ceric ion reactive compounds measured at 500 nm: transfer 3, 96 h, 30° C.
Description: (§1) Bacterial strains and media. Clostridium acetobutylicum ATCC 824 and C. beijerinckii NCIMB 8052 are available from several commercial microbial culture collections including the American Type Culture Collection (ATCC), Manassas, Va., USA. The strains were grown at 30° C. or 37° C. in YE broth, which contained, per liter: 5.0 g yeast extract, 2.5 g casamino acids, 1.0 g L-asparagine, 0.5 g cysteine.HCl, 56 mg K2HPO4, 56 mg KH2PO4, 82 mg anhydrous MgSO4, 8 mg FeSO4.H2O, 6 mg MnSO4.H2O and 10 g glucose. Alternatively, strains were grown in YEPG broth, which was identical to YE expect that K2HPO4 and KH2PO4 were increased to 145 mg/L each and glucose was increased to 60 g/L. The pH of the media was adjusted to 7.2 using 45% KOH prior to sterilization by autoclaving. Media were solidified by addition of 1.5% Bacteriological Agar, Actimedia Manufacturers, Inc., Lansing, Mich. All cultures were grown in anaerobic conditions using the AnaeroPack System, Mitsubishi Gas Chemical Co., Inc., Japan, and GasPak EZ Gas Generating Sachets, Becton, Dickinson and Co., Sparks, Md. Spore stocks were kept at room temperature on agar-solidified media and were activated by suspending spores in 0.5 mL to 1.0 mL of medium followed by heating for 10 min at 80° C. before inoculation into growth medium.
Analysis of solvents. Total alcohols in cell-free culture supernatants were measured using a modification of a colorimetric method based on ceric ammonium nitrate (Reid and Truelove, 1952). […] The sample was mixed by inverting the cuvette six times then exactly two minutes later the optical density at 500 nm wavelength was measured. The concentration of total alcohols was determined by comparison with a standard curve prepared by using butanol diluted in distilled water.
Effect of peptide SEQ ID NO:145 addition on sequential batch cultures of C. beijerinckii NCIMB 8052 grown at 30° C. […] Each culture was stopped after 96 hours of incubation and optical density, pH and ceric ion reactive chemicals were measured. […]

[2] = system: C. beijerinckii NCIMB 8052; test: Growth (optical density at 600 nm) of sequential batch cultures; format: cell-based, Clostridium beijerinckii
Description: as §1
Growth and pH measurements. Growth of bacterial cultures was measured spectrophotometrically using optical density at 600 nm and pH of cell-free culture supernatants was measured using a hand-held Shindengen ISFET pH Meter KS501, Shendengen Electric Manufacturing Co., Ltd., Bannockburn, Ill.
Effect of peptide SEQ ID NO:145 addition on sequential batch cultures of C. beijerinckii NCIMB 8052 grown at 30° C. Spores of C. beijerinckii NCIMB 8052 were germinated and grown overnight at 30° C. under anaerobic conditions in YEPG medium. After about 24 h of growth, […] of the culture was transferred (transfer 1) to each of four flasks that contained 10 mL of YEPG and either had no treatment or were treated with peptide SEQ ID NO:145 (see Table 8) at 1 nM, 10 nM or 50 nM. Thereafter, 75 μL of each culture was transferred, at the same time, every 24-48 h to 10 mL of fresh YEPG that contained the same peptide treatment or no treatment. Each culture was stopped after 96 hours of incubation and optical density, pH and ceric ion reactive chemicals were measured. Sequential batch culturing was continued through 6 transfers at which point all cultures appeared to be growing to the same extent (Table 12 and FIG. 4).
Effect of peptide SEQ ID NO:145 addition on sequential batch cultures of C. beijerinckii NCIMB 8052 grown at 37° C. Spores of C. beijerinckii NCIMB 8052 were germinated and grown overnight at 37° C. under anaerobic conditions in YEPG medium that either contained 50 nM of peptide SEQ ID NO:145 or no added peptide. After about 24 h of growth, 10 μL of the untreated culture was transferred (transfer 1) to each of two flasks that contained 10 mL of YEPG with either no treatment or with 50 nM peptide SEQ ID NO:145. At the same time, 10 μL of the culture that was germinated in the presence of peptide SEQ ID NO:145 was also transferred to 10 mL of YEPG that contained 50 nM of peptide SEQ ID NO:145. Thereafter, 10 μL of each culture was transferred, at the same time, every 24-48 h to 10 mL of fresh YEPG that contained the same peptide treatment or no treatment. Each culture was stopped after 72 hours of incubation and optical density, pH and ceric ion reactive chemicals were measured. Addition of peptide SEQ ID NO:145 appeared to have no effect on endpoint measurements of the growth of C. beijerinckii NCIMB 8052 after germination or during sequential transfers of cultures at 37° C. (Table 18 and FIG. 10). All three cultures stopped growing at the second transfer.

## IRLIT (Derived from Clostridium beijerinckii SEQ ID NO: 141) [Peptide SEQ ID NO:145, pentapeptide from C. beijerinckii NCIMB 8052 locus Cbei_1065; chemically synthesized putative autoinducing peptide]
[1]; 37° C.
  Effect on endpoint measurements of ceric ion reactive compounds: no apparent effect
[1]; listed as SEQ ID NO: 145
  Optical density of ceric ion reactive compounds measured at 500 nm: −0.002
[1]; listed as SEQ ID NO:145
  Optical density of ceric ion reactive compounds measured at 500 nm: no ceric ion reactive compounds
[2]; 1 nM peptide, transfer 1, 96 h, 30° C.
  Optical density at 600 nm of culture broths: 2.086
[2]; 1 nM peptide, transfer 2, 96 h, 30° C.
  Optical density at 600 nm of culture broths: 2.086
[2]; 1 nM peptide, transfer 3, 96 h, 30° C.
  Optical density at 600 nm of culture broths: 2.106
[2]; 1 nM peptide, transfer 4, 96 h, 30° C.
  Optical density at 600 nm of culture broths: 2.115
[2]; 1 nM peptide, transfer 5, 96 h, 30° C.
  Optical density at 600 nm of culture broths: 2.090
[2]; 1 nM peptide, transfer 6, 96 h, 30° C.
  Optical density at 600 nm of culture broths: 2.075
[2]; 10 nM peptide, transfer 1, 96 h, 30° C.
  Optical density at 600 nm of culture broths: 2.080
[2]; 10 nM peptide, transfer 2, 96 h, 30° C.
  Optical density at 600 nm of culture broths: 2.093
[2]; 10 nM peptide, transfer 3, 96 h, 30° C.
  Optical density at 600 nm of culture broths: 2.078
[2]; 10 nM peptide, transfer 4, 96 h, 30° C.
  Optical density at 600 nm of culture broths: 2.108
[2]; 10 nM peptide, transfer 5, 96 h, 30° C.
  Optical density at 600 nm of culture broths: 2.069
[2]; 10 nM peptide, transfer 6, 96 h, 30° C.
  Optical density at 600 nm of culture broths: 2.062
[2]; 50 nM peptide added after germination, transfer 1, 72 h, 37° C.
  Optical density at 600 nm of culture broths: 1.313
[2]; 50 nM peptide added after germination, transfer 2, 72 h, 37° C.
  Optical density at 600 nm of culture broths: 0.011
[2]; 50 nM peptide, 37° C.
  Effect on endpoint measurements of growth after germination or during sequential transfers: no effect
  Effect on germination and growth (visual observations through the course of growth): repressive effect
[2]; 50 nM peptide, transfer 1, 96 h, 30° C.
  Optical density at 600 nm of culture broths: 2.102
[2]; 50 nM peptide, transfer 2, 96 h, 30° C.
  Optical density at 600 nm of culture broths: 2.023
[2]; 50 nM peptide, transfer 3, 96 h, 30° C.
  Optical density at 600 nm of culture broths: 1.936
[2]; 50 nM peptide, transfer 4, 96 h, 30° C.
  Optical density at 600 nm of culture broths: 2.061
[2]; 50 nM peptide, transfer 5, 96 h, 30° C.
  Optical density at 600 nm of culture broths: 2.120
[2]; 50 nM peptide, transfer 6, 96 h, 30° C.
  Optical density at 600 nm of culture broths: 2.046
[2]; 1-50 nM peptide, 96 h, 30° C.
  Growth of treated cultures during incubation (data not shown): slow the growth of the treated cultures during 96 h of incubation in a dose dependent manner
[2]; 50-50: germinated and transferred in 50 nM peptide, transfer 1, 72 h, 37° C.
  Optical density at 600 nm of culture broths: 1.420
[2]; 50-50: germinated and transferred in 50 nM peptide, transfer 2, 72 h, 37° C.
  Optical density at 600 nm of culture broths: 0.011
[2]; 50-50: spores germinated in 50 nM peptide, transfer 0 (germinated culture), 72 h, 37° C.
  Optical density at 600 nm of culture broths: 1.158
[2]; through six culture transfers, 30° C.
  Number of times that cultures could be transferred in comparison with an untreated culture: did not affect
